No end group written: not given here.
Experiments:
Format in all cases: cell-based
[1] = system: Aspergillus fumigatus AF293 (NCPF7367); assay: microbe, parasite or virus in culture; settings: Aspergillus fumigatus 293; peptides; Tables 4 and 5
Experimental: (§1) Four compounds were supplied as an aqueous solution, 400 μM. Serial dilutions of each test peptide were prepared in addition to a control, which was a conventional antifungal drug, Amphoteracin B. Amphteracin B is obtained from Invitrogen or Melford laboratories.
(§2) Initial testing of the peptides was carried out against the following organisms: • 1) Aspergillus fumigatus AF293 (culture collection strain NCPF7367) • 2) Candida albicans 6862 (clinical isolate) • 3) Fusarium spp 5889 (clinical isolate) • 4) Fusarium spp 6507 (clinical isolate) • 5) Aspergillus terreus (clinical isolate) • 6) Aspergillus niger (clinical isolate) • 7) Staphylococcus aureus (Oxford strain, which is a standard reference strain used in MIC testing)
The bacterium S. aureus was tested with each of the peptides as a control. A suspension of each organism in an appropriate growth medium was added to the, dilutions of the peptides in order to give concentration ranges of 40 μM to 0.04 μM for each of the peptides, and 64-0.025 μg/ml for amphotericin B. Fungal strains were tested in RPMI media. RPMI is standard Roswell Park Memorial Institute medium (Morton, H. C., (1970) A survey of Commercially Available Tissue Culture Media. In Vitro 6: 89-108).
The final inoculum for S. aureus was 5×10^4 cfu/ml. The final inoculum for C. albicans was 2×10^3 cfu/ml. The final inoculum for Aspergillus fumigatus and for Fusarium spp was 2×10^4 cfu/ml.
(§3) Candida and S. aureus plates were read after 24 hrs incubation and the Aspergillus and Fusarium strains read after 48 hrs. The MIC was taken as the lowest drug or compound concentration that caused >80% reduction in growth compared with a drug free control.
Aspergillus fumigatus 293 (AF); and
FS1-FS4 were obtained from Bristol PHLS (British Public Health Laboratory Service UK). Aspergillus fumigatus 293 is publicly available as culture collection strain NCPF7367 (National Collection of Pathogenic Fungi Public Health Laboratory, Mycological Reference Laboratory Myrtle Road, Kingsdown, Bristol BS2 8EL) The Candida albicans was a clinical isolate obtained by standard means. […]

[2] = system: Fusarium solani 1 (FS1); assay: Antifungal MIC (Example 4); settings: Fusarium solani 1; peptides; Tables 4 and 5
Experimental: (§4) The inventor expanded the work conducted in Example 1 by testing an expanded library of peptides derived from either apolipoprotein B or apolipoprotein E in order to further evaluate polypeptides in accordance with the invention. These experiments were conducted using the following fungal species:
(§5) FS1-FS4 were obtained from Bristol PHLS (British Public Health Laboratory Service UK). Aspergillus fumigatus 293 is publicly available as culture collection strain NCPF7367 (National Collection of Pathogenic Fungi Public Health Laboratory, Mycological Reference Laboratory Myrtle Road, Kingsdown, Bristol BS2 8EL) The Candida albicans was a clinical isolate obtained by standard means.
(§6) The methods used to determine, the IC50 values for each peptide were as described in the Example 1.

[3] = system: Fusarium solani 2 (FS2); assay: Antifungal MIC (Example 4); settings: Fusarium solani 2; peptides; Tables 4 and 5
Experimental: as §4, §5, §6

[4] = system: Fusarium solani 3 (FS3); assay: Antifungal MIC (Example 4); settings: Fusarium solani 3; peptides; Tables 4 and 5
Experimental: as §4, §5, §6

[5] = system: Fusarium solani 4 (FS4); assay: Antifungal MIC (Example 4); settings: Fusarium solani 4; peptides; Tables 4 and 5
Experimental: as §4, §5, §6

[6] = system: Candida albicans (CA), clinical isolate; assay: Antifungal MIC (Example 4); settings: peptides, Tables 4 and 5
Experimental: as §4, §5, §6

[7] = system: fungi; settings: overall statement on the fungi tested
Experimental: as §1, §2
The bacterium S. aureus was tested with each of the peptides as a control. […] RPMI is standard Roswell Park Memorial Institute medium (Morton, H. C., (1970) A survey of Commercially Available Tissue Culture Media. In Vitro 6: 89-108).
as §3, §6

Substance	MIC values (>80% reduction) AF [1] [µM]	MIC values (>80% reduction) FS1 [2] [µM]	MIC values (>80% reduction) FS2 [3] [µM]	MIC values (>80% reduction) FS3 [4] [µM]	MIC values (>80% reduction) FS4 [5] [µM]	MIC values (>80% reduction) CA [6] [µM]	antifungal activity (in words) [7]
ARKARKRAAARKARKRAA (Artificial polypeptide designated MU 2) [MU_2, 77]	>40	>40	>40	>40	>40	>40	
CRKCRKRCCCRKCRKRCC (Artficial polypeptide designated MU 12) [MU_12]	40	2.5	5	10	5	>40	particularly effective antifungal peptides
DRKDRKRDDDRKDRKRDD (Artificial polypeptide designated MU 3) [MU_3, 78]	>40	>40	>40	>40	>40	>40	
ERKERKREEERKERKREE (Artificial polypeptide designated MU 1) [MU_1, 76]	>40	>40	>40	>40	>40	>40	
GRKGRKRGGGRKGRKRGG (Artificial polypeptide designated MU 17) [MU_17, 84]	>40	>40	>40	>40	>40	>40	
HRKHRKRHHHRKHRKRHH (Artificial polypeptide designated MU 19) [MU_19]	>40	20	>40	40	10	>40	
IRKIRKRIIIRKIRKRII (Artficial polypeptide designated MU 8) [MU_8]	>40	40	20	20	40	>40	
KRKKRKRKKKRKKRKRKK (Artificial polypeptide designated MU 18) [MU_18, 85]	>40	2.5	10	2.5	>40	>40	particularly effective antifungal peptides
LRKLRKRLL (listed as Homo sapiens) [apoE141-149, monomeric 9-mer of apolipoprotein E, reference compound]							no detectable antifungal activity
LRKLRKRLLLRKLRKRWW (Artificial polypeptide designated MU 112) [MU_112, 24]	>40	2.5	2.5	2.5	5	>40	
LRKLRKRLLRLRKLRKRLLR (Artificial polypeptide designated MU 82) [MU_82, 21]	>40	2.5	2.5	2.5	10	>40	
MRKMRKRMMMRKMRKRMM (Artificial polypeptide designated MU 16) [MU_5]	>40	10	20	20	40	>40	
NRKNRKRNNNRKNRKRNN (Artificial polypeptide designated MU 11) [MU_11, 80]	>40	>40	>40	40	>40	>40	
PRKPRKRPPPRKPRKRPP (Artificial polypeptide designated MU 20) [MU_20, 86]	>40	>40	>40	>40	>40	>40	
QRKQRKRQQQRKQRKRQQ (Artificial polypeptide designated MU 9) [MU_9, 79]	>40	>40	>40	>40	>40	>40	
RLTRKRGLK (listed as Homo sapiens) [apoB3359-3367, monomeric 9-mer of apolipoprotein B, reference compound]							no detectable antifungal activity
SRKSRKRSSSRKSRKRSS (Artificial polypeptide designated MU 13) [MU_13, 81]	>40	>40	>40	>40	>40	>40	
TRKTRKRTTTRKTRKRTT (Artificial polypeptide designated MU 15) [MU_15, 83]	>40	>40	>40	>40	>40	>40	
VRKVRKRVVVRKVRKRVV (Artificial polypeptide designated MU 14) [MU_14, 82]	>40	>40	>40	>40	>40	>40	
WRKWRKRWWLRKLRKRLL (Artificial polypeptide designated GIN 34)	40	1.25	0.6	1.25	12.5	10	
modified apoB3359-3367: SEQ ID No. 7; modified form of the apoB3359-3367 9-mer, sequence shown only in Table 1 drawing (LRTRKRGRK; not fully specified) [reference compound]							no detectable antifungal activity
